Assay results reported in DBAASP.
≈ marks a conversion by molar mass, not a printed value. Blank lines part the entries; values can stand above or below the molecule they belong to.

Key:
Assay in all cases: ≥ marks a high value that may be exact or a test limit, other limits are often not marked, values filed in µg/mL are converted to µM
[1] = test system: Staphylococcus aureus ATCC 25923
[2] = test system: Staphylococcus aureus K35
[3] = test system: Pseudomonas aeruginosa PA14
[4] = test system: Enterococcus faecalis ATCC 29212
Pseudomonas aeruginosa = test system: Pseudomonas aeruginosa
[5] = test system: Staphylococcus epidermidis ATCC 12228
[6] = test system: Staphylococcus aureus K52
Enterococcus faecium = test system: Enterococcus faecium
[7] = test system: Enterobacter cloacae beta-12
Escherichia coli BL21 = test system: Escherichia coli BL21
[8] = test system: Saccharomyces cerevisiae ATCC 9763
[9] = test system: Cryptococcus neoformans ATCC 32045
[10] = test system: Salmonella typhimurium CMCC 50013
[11] = test system: Listeria monocytogenes CMCC 54002
[12] = test system: Candida albicans ATCC 10231
[13] = test system: Streptococcus pyogenes ATCC 12344
[14] = test system: Aspergillus flavus ATCC 9643
[15] = test system: Aspergillus niger ATCC 6275
[16] = test system: Shigella dysenteriae CMCC 51302
[17] = test system: Trichophyton rubrum ATCC 28188
[18] = test system: Staphylococcus aureus ATCC 29313
[19] = test system: Escherichia coli ATCC 43827
[20] = test system: Staphylococcus aureus ATCC 33591
[21] = test system: Pseudomonas aeruginosa ATCC 9027
[22] = test system: Pseudomonas aeruginosa ATCC 27853
[23] = test system: Xanthomonas axonopodis pv. glycines ISBF 327
[24] = test system: Acinetobacter baumannii ATCC BAA-1605
[25] = test system: Acinetobacter baumannii ATCC 19606
[26] = test system: Mannheimia haemolytica Serovar 2
[27] = test system: Klebsiella aerogenes ATCC 13048
Pasteurella multocida = test system: Pasteurella multocida
[28] = test system: Escherichia coli ATCC 25922
Bibersteinia trehalosi = test system: Bibersteinia trehalosi
[29] = test system: Corynebacterium pseudotuberculosis ATCC 19410
[30] = test system: Staphylococcus aureus ATCC 43300
[31] = test system: Fusobacterium nucleatum ATCC 25586
[32] = test system: Staphylococcus aureus ATCC 29213
[33] = test system: Streptococcus mutans Ingbritt
Staphylococcus aureus = test system: Staphylococcus aureus
Klebsiella pneumoniae = test system: Klebsiella pneumoniae
[34] = test system: Salmonella enterica subsp. arizonae
[35] = test system: Mannheimia haemolytica Serovar 1
Aspergillus fumigatus = test system: Aspergillus fumigatus
[36] = test system: Mannheimia haemolytica Serovar 6
[37] = test system: Klebsiella pneumoniae ATCC 13883
[38] = test system: Pseudomonas aeruginosa LCCI
[39] = test system: Pseudomonas aeruginosa LC
[40] = test system: Pseudomonas aeruginosa LCGE
[41] = test system: Salmonella enterica subsp. enterica serovar Typhimurium C77-31
[42] = test system: Pseudomonas aeruginosa ATCC 21630
[43] = test system: Pseudomonas aeruginosa ATCC 10419
[44] = test system: Pseudomonas aeruginosa LCCE
[45] = test system: Pseudomonas aeruginosa ATCC 21625

Compound: CC[C@H](C)[C@H](NC(=O)CNC(=O)[C@H](CO)NC(=O)[C@H](CC(C)C)NC(=O)[C@@H](NC(=O)[C@H](CCCCN)NC(=O)CNC(=O)[C@@H](NC(=O)[C@H](CC(C)C)NC(=O)[C@@H]1CCCN1C(=O)[C@H](CC(C)C)NC(=O)[C@@H](N)Cc1ccccc1)[C@@H](C)CC)C(C)C)C(=O)N[C@@H](CC(C)C)C(N)=O [FLPLIGKVLSGIL]
MIC [1]: 5.2 µM (≈ 7.12 µg/mL)
MIC [2]: 4.4 µM (≈ 6.02 µg/mL)
MIC [3]: ≥ 128 µM
MIC [4]: 20.9 µM (≈ 28.6 µg/mL)
MIC (Pseudomonas aeruginosa): > 64 µM
MIC [5]: ≥ 128 µM
MIC [6]: 4.4 µM (≈ 6.02 µg/mL)
MIC (Enterococcus faecium): 17.5 µM (≈ 24 µg/mL)
MIC [7]: ≥ 128 µM
MIC (Escherichia coli BL21): ≥ 64 µM

Compound: CC(C)C[C@H](NC(=O)CN)C(=O)N[C@@H](C)C(=O)N[C@@H](CCCN=C(N)N)C(=O)N[C@@H](C)C(=O)N[C@@H](CC(C)C)C(=O)N[C@H](C(=O)N[C@@H](CCCN=C(N)N)C(=O)N[C@@H](CC(C)C)C(=O)N[C@@H](CC(C)C)C(=O)N[C@@H](CCCN=C(N)N)C(=O)N[C@@H](CCC(N)=O)C(=O)N[C@@H](CC(C)C)C(=O)N[C@H](C(=O)N[C@@H](CCCN=C(N)N)C(=O)N[C@@H](CCC(N)=O)C(=O)N[C@@H](CC(C)C)C(=O)N[C@H](C(=O)N[C@@H](CCCN=C(N)N)C(=O)N[C@@H](C)C(=O)O)[C@@H](C)O)[C@@H](C)O)[C@@H](C)O [GLARALTRLLRQLTRQLTRA]
MIC [8]: 16 µM (≈ 36.9 µg/mL)
MIC [9]: 16 µM (≈ 36.9 µg/mL)
MIC [10]: 2 µM (≈ 4.62 µg/mL)
MIC [11]: 4 µM (≈ 9.23 µg/mL)
MIC [12]: 8 µM (≈ 18.5 µg/mL)
MIC [13]: 4 µM (≈ 9.23 µg/mL)
MIC [14]: 8 µM (≈ 18.5 µg/mL)
MIC [15]: ≥ 32 µM
MIC [16]: 4 µM (≈ 9.23 µg/mL)
MIC [17]: ≥ 32 µM

Compound: CC[C@H](C)[C@H](NC(=O)[C@H](CCCCN)NC(=O)[C@H](CC(N)=O)NC(=O)[C@@H](NC(=O)[C@@H](NC(=O)[C@H](CCCCN)NC(=O)[C@@H](NC(=O)[C@H](C)NC(=O)[C@@H](NC(=O)[C@H](Cc1cnc[nH]1)NC(=O)CNC(=O)[C@H](C)NC(=O)[C@H](CC(C)C)NC(=O)[C@H](CC(=O)O)NC(=O)[C@H](CCCCN)NC(=O)[C@H](C)NC(=O)[C@H](C)NC(=O)CNC(=O)[C@H](CCCCN)NC(=O)[C@H](CC(C)C)NC(=O)[C@@H](NC(=O)[C@H](CC(=O)O)NC(=O)[C@H](CC(C)C)NC(=O)[C@@H](NC(=O)CN)C(C)C)[C@@H](C)CC)C(C)C)[C@@H](C)O)C(C)C)[C@@H](C)CC)C(N)=O [GVLDILKGAAKDLAGHVATKVINKI]
MIC [18]: ≥ 50 µM
MIC [19]: ≥ 201 µM
MIC [20]: ≥ 201 µM
MIC [21]: > 201 µM
MIC [22]: 100 µM (≈ 254 µg/mL)
MIC [23]: 25 µM (≈ 63.6 µg/mL)
MIC [24]: ≥ 50.3 µM

More lines, main results first:

MIC [25]: 2.6 µM (≈ 5.88 µg/mL)
MIC [27]: ≥ 45.9 µM
MIC (Pasteurella multocida): 0.265 µM (≈ 0.6 µg/mL)
MIC [4]: 78.8 µM (≈ 178 µg/mL)
MIC [28]: 9.6 µM (≈ 21.7 µg/mL)
MIC (Bibersteinia trehalosi): 1.02 µM (≈ 2.3 µg/mL)
MIC (Pseudomonas aeruginosa): 0.625 µM (≈ 1.41 µg/mL)
MIC [29]: 8.84 µM (≈ 20 µg/mL)
MIC [30]: > 250 µM
MIC [31]: 4.2 µM (≈ 9.5 µg/mL)
MIC [32]: 138 µM (≈ 313 µg/mL)
MIC [33]: 16.5 µM (≈ 37.3 µg/mL)
MIC (Staphylococcus aureus): 6.63 µM (≈ 15 µg/mL)
MIC (Klebsiella pneumoniae): 0.353 µM (≈ 0.8 µg/mL)
MIC [34]: 2.96 µM (≈ 6.7 µg/mL)
MIC (Aspergillus fumigatus): 4.42 µM (≈ 10 µg/mL)
MIC [37]: 7.7 µM (≈ 17.4 µg/mL)
Compound: CC[C@H](C)[C@H](NC(=O)[C@H](CCCN=C(N)N)NC(=O)[C@H](CCCN=C(N)N)NC(=O)[C@H](CC(C)C)NC(=O)[C@H](CC(N)=O)NC(=O)[C@@H](N)CCCCN)C(=O)N[C@H](C(=O)N[C@@H](CCCN=C(N)N)C(=O)N[C@@H](CCCCN)C(=O)N[C@H](C(=O)N[C@H](C(=O)N[C@@H](Cc1cnc[nH]1)C(=O)N[C@H](C(=O)N[C@H](C(=O)N[C@@H](CCCCN)C(=O)N[C@@H](CCCCN)C(=O)N[C@@H](Cc1ccc(O)cc1)C(=O)NCC(=O)O)[C@@H](C)CC)[C@@H](C)CC)[C@@H](C)CC)[C@@H](C)CC)[C@@H](C)CC [KNLRRIIRKIIHIIKKYG]
MIC [26]: 0.265 µM (≈ 0.6 µg/mL)
MIC [35]: 0.663 µM (≈ 1.5 µg/mL)
MIC [36]: 0.0884 µM (≈ 0.2 µg/mL)

MIC [38]: 2 µM (≈ 4.54 µg/mL)
MIC [39]: 1 µM (≈ 2.27 µg/mL)
MIC [40]: 4 µM (≈ 9.07 µg/mL)
MIC [41]: ≥ 128 µM
MIC [28]: 64 µM (≈ 145 µg/mL)
MIC [42]: 4 µM (≈ 9.07 µg/mL)
MIC [32]: 128 µM (≈ 290 µg/mL)
MIC [5]: 64 µM (≈ 145 µg/mL)
MIC [43]: 4 µM (≈ 9.07 µg/mL)
MIC [44]: 4 µM (≈ 9.07 µg/mL)
MIC [45]: 4 µM (≈ 9.07 µg/mL)
Compound: CC[C@H](C)[C@H](NC(=O)[C@H](CCCCN)NC(=O)[C@H](CCCCN)NC(=O)[C@H](CC(C)C)NC(=O)[C@H](CCCN=C(N)N)NC(=O)[C@H](CCCCN)NC(=O)[C@H](CCCN=C(N)N)NC(=O)[C@H](Cc1c[nH]c2ccccc12)NC(=O)[C@H](CCCCN)NC(=O)[C@H](CCCCN)NC(=O)[C@H](CCCN=C(N)N)NC(=O)[C@H](CC(C)C)NC(=O)[C@H](CCCN=C(N)N)NC(=O)[C@H](CCCN=C(N)N)NC(=O)[C@H](Cc1ccccc1)NC(=O)[C@@H](N)CCCN=C(N)N)C(N)=O [RFRRLRKKWRKRLKKI]
